Experimental findings from US20110112135A1, “Imidazo [1,2-A] Pyridine Compounds” (priority 2007, published 2011) are described below.

The subject of one assay is ABCA1 gene. Description: Quantitative analysis of ABCA1 gene regulation in THP-1 cells (real-time PCR). Type of assay: cell-based, human. Particulars: Gene regulation by LXR (Human), differentiated THP-1 cells, 18 hrs; for EC50: ABCA1 mRNA, read-out: EC50 ABCA1; for Emax: LXR agonist reference at 1.0 uM as positive control, read-out: Agonism ABCA1. On the technique in general: Quantitative PCR measures a nucleic acid by following its amplification.

The next assay has as its target T1, human LXRα (Homo sapiens, UniProt Q13133).
T1 construct: biotin (biotinylated); made in house; host or cells: E. coli (crude extract)
T1 sequence (Q13133 1-447): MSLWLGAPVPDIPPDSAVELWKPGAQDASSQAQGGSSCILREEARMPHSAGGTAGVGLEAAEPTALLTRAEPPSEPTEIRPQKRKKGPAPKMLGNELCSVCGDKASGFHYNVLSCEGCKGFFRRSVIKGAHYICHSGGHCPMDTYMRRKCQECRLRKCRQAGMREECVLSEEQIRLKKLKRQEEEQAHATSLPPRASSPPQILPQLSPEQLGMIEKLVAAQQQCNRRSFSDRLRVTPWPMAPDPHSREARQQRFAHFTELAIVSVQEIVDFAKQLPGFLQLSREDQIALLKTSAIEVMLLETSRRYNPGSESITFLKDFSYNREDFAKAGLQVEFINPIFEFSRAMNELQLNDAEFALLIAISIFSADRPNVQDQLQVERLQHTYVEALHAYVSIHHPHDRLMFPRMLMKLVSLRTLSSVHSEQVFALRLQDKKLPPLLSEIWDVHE
Description: Ligand-binding test procedure for human LXRα (3H T0901317 tracer, flash plates). Particulars: biotinylated hLXRα from E. coli extract; tracer 3H T0901317. In short, it runs like this: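 Biotinylated hLXRα from E. coli extract (50 mM Tris) captured on streptavidin flash plates overnight at 4 °C. Compound dilution series mixed with 5 nM [3H]T0901317 (concentration before mixing), incubated overnight at 4 °C; wells aspirated, washed and remaining radioactivity counted.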

For another assay, the target named is T2, human LXRβ (Homo sapiens, UniProt P55055).
T2 construct: biotin (biotinylated); made in house; host or cells: E. coli (crude extract)
T2 sequence (P55055 1-460): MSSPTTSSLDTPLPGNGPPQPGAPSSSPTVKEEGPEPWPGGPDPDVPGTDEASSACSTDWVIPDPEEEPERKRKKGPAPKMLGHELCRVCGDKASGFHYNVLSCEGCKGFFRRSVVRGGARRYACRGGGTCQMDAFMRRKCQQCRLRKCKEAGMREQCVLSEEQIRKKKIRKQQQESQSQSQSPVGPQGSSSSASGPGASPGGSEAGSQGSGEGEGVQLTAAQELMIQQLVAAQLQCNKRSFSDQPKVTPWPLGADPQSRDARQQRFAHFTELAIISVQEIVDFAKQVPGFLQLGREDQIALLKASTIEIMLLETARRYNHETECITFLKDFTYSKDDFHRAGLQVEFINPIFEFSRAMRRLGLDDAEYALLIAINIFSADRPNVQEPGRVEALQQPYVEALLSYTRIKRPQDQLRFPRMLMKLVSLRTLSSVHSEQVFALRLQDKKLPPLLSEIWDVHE
Description: Ligand-binding test procedure for human LXRβ (3H T0901317 tracer, flash plates). The note with it: biotinylated hLXRβ from E. coli extract; tracer 3H T0901317. In short, it runs like this:
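Biotinylated hLXRβ from E. coli extract was captured on streptavidin flash plates (Bmax ~4000 cpm) at 4 °C overnight. Test ligand dilutions were mixed with 5 nM [3H]T0901317 tracer solution and incubated on the plates overnight at 4 °C; bound radioactivity was counted after washing.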

By EC50 is commonly meant the concentration giving half of the maximal effect. The IC50 is the concentration that inhibits the measured activity by half. Read a low IC50 as inhibition by little substance. Turning to `CS(=O)(=O)c1cccc(Oc2cccc(-c3c(Cn4ccnc4)nc4c(C(F)(F)F)cccn34)c2)c1` [Example 129, 2-(1H-imidazol-1-ylmethyl)-3-{3-[3-(methylsulfonyl)phenoxy]phenyl}-8-(trifluoromethyl)imidazo[1,2-a]pyridine], in the assay on ABCA1 gene, the 50% effective concentration (EC50) is 135 nM and the Emax came out at 103%. The molecule further returned an IC50 on human LXRα of 370 nM. On human LXRβ, this molecule returned an IC50 of 30 nM.

For the molecule `CCCCOCc1nc2c(C(F)(F)F)cccn2c1-c1ccc(Oc2cccc(S(C)(=O)=O)c2)cc1` [Example 128, 2-(butoxymethyl)-3-{4-[3-(methylsulfonyl)phenoxy]phenyl}-8-(trifluoromethyl)imidazo[1,2-a]pyridine], in the assay with ABCA1 gene, the EC50 was 40 nM and the Emax is 76%. On human LXRα, this molecule gave an IC50 of 430 nM. The molecule further returned an IC50 at human LXRβ of 28 nM.

For the molecule `CCc1nc2c(C(F)(F)F)cccn2c1-c1cccc(Oc2cc(F)cc(S(C)(=O)=O)c2)c1` [Example 24, 2-ethyl-3-(3-(3-fluoro-5-(methylsulfonyl)phenoxy)phenyl)-8-(trifluoromethyl)imidazo[1,2-a]pyridine], in the assay on ABCA1 gene, the EC50 worked out at 147 nM and the Emax stood at 76%. Besides, the half-inhibitory concentration (IC50) at human LXRα came to 636 nM. For the same molecule, the IC50 at human LXRβ was determined as 51 nM.

As to `CCc1nc2c(C(F)(F)F)cccn2c1-c1cccc(Oc2cccc(S(=O)(=O)CC)c2)c1` [Example 18, 2-ethyl-3-(3-(3-(ethylsulfonyl)phenoxy)phenyl)-8-(trifluoromethyl)imidazo[1,2-a]pyridine], in the assay on ABCA1 gene, the concentration giving a half-maximal response (EC50) was determined as 110 nM and the Emax stood at 118%. At human LXRα, this molecule had a half-inhibitory concentration (IC50) of 321 nM. At human LXRβ, this molecule gave an IC50 of 14 nM.

On to `CCCS(=O)(=O)c1cccc(Oc2cccc(-c3c(CC)nc4c(C(F)(F)F)cccn34)c2)c1` [Example 19, 2-ethyl-3-(3-(3-(propylsulfonyl)phenoxy)phenyl)-8-(trifluoromethyl)imidazo[1,2-a]pyridine], for which, in the assay on ABCA1 gene, the EC50 is 408 nM and the Emax is 72%. Further, the concentration for half-maximal inhibition (IC50) at human LXRα was determined as 975 nM. Besides, the concentration for half-maximal inhibition (IC50) on human LXRβ turned out to be 94 nM.

Turning to `CCS(=O)(=O)c1cccc(Oc2cccc(-c3c(C(C)C)nc4c(Cl)cccn34)c2)c1` [Example 67, 8-chloro-3-{3-[3-(ethylsulfonyl)phenoxy]phenyl}-2-isopropylimidazo[1,2-a]pyridine], in the assay on ABCA1 gene, the EC50 turned out to be 1620 nM and the Emax turned out to be 81%. At human LXRα, this molecule displayed an IC50 of 405 nM. Besides, at human LXRβ, the IC50 turned out to be 9.5 nM.

Regarding `CC(C)c1nc2c(C#N)cccn2c1-c1cc(Oc2cccc(S(=O)(=O)C(C)C)c2)ccc1Cl` [Example 84, 3-{2-chloro-5-[3-(isopropylsulfonyl)phenoxy]phenyl}-2-isopropylimidazo[1,2-a]pyridine-8-carbonitrile], the EC50 in the assay on ABCA1 gene amounted to 375 nM. The Emax in the assay on ABCA1 gene was 70%. Further, the IC50 at human LXRα came out at 276 nM; at human LXRβ it was 8.5 nM.
